Values of other authors as cited in patent US20250347706A1, “DISPOSABLE CARTRIDGE FOR CLASSIFICATION OF ANTICOAGULANT AND METHOD OF USE” (Haemonetics Corporation, priority 2023, published 2025).

Conditions: for half-life compared with dabigatran: in vivo

Compound: COc1ccc(-n2nc(C(N)=O)c3c2C(=O)N(c2ccc(N4CCCCC4=O)cc2)CC3)cc1 [apixaban]
- half-life compared with dabigatran: shorter half-lives than dabigatran
- increased half-life (patients with severe renal impairment compared to healthy volunteers (Dager et al.)): up to 44%

Compound: O=C(NC[C@H]1CN(c2ccc(N3CCOCC3=O)cc2)C(=O)O1)c1ccc(Cl)s1 [rivaroxaban]
- half-life compared with dabigatran: shorter half-lives than dabigatran

Compound: dabigatran
- half-life (lengthened in patients with renal dysfunction, Pradaxa product information): 12 to 17 h
